Assay results published in patent publication US20250154169A1, “COMPOUNDS AND METHODS FOR MODULATING SPLICING” (REMIX THERAPEUTICS INC., priority 2021, published 2025).
Structures can show the parent of a compound that is named as a salt. Where two headings read alike, the source gives them in different places.

What was measured:
Format in all cases: cell-based, human
[1] = system: Target C mRNA; assay: Splicing RT-qPCR gene panel, Target C canonical junction (CJ) mRNA; details: Homo sapiens, Tables 4A/4B, read-out: Target C (IC50, decrease in CJ mRNA, gene panel)
In short: (§1)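 A673 or K562 cells treated 24 h at 37° C. with an 11-point 3-fold dilution series (top 10 uM, ≤0.25% DMSO). Lysates analysed by one-step RT-qPCR for canonical exon-exon junction transcripts, normalized to GAPDH, GUSB or PPIA and DMSO control (2^(−ΔΔCt)), then converted to percentage response.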

[2] = system: HTT mRNA; assay: Splicing RT-qPCR gene panel, HTT canonical junction (CJ) mRNA; details: Homo sapiens, Tables 4A/4B, read-out: HTT (IC50, decrease in CJ mRNA, gene panel)
In short: as §1

[3] = system: MYB mRNA; assay: Splicing RT-qPCR assay, MYB canonical (CJ) and alternative (AJ) junction mRNA
In short: (§2)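 Read-out is the abundance of canonical-junction versus new alternative-exon-junction mRNA, determined by real-time qPCR after cDNA synthesis and normalized to a housekeeping gene. It is measured in A673 or K562 cells exposed to compounds for 24 h, top dose 10 uM.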

[4] = system: HTT mRNA; assay: Splicing RT-qPCR assay, HTT canonical (CJ) and alternative (AJ) junction mRNA
In short: as §2

[5] = system: SMN2 mRNA; assay: Splicing RT-qPCR gene panel, SMN2 canonical junction (CJ) mRNA; details: Homo sapiens, Tables 4A/4B, read-out: SMN2 (IC50, decrease in CJ mRNA, gene panel)
In short: as §1

[6] = Homo sapiens, 24 h, A673 or K562 cells, 24 hours compound treatment, RT-qPCR, read-out: MYB AJ (AC50, increase in alternative junction mRNA)
[7] = Homo sapiens, 24 h, A673 or K562 cells, 24 hours compound treatment, RT-qPCR, read-out: MYB CJ (IC50, decrease in canonical junction mRNA)
[8] = Homo sapiens, Tables 4A/4B, canonical junction qPCR panel, read-out: MYB (IC50, decrease in CJ mRNA, gene panel)
[9] = Homo sapiens, 24 h, A673 or K562 cells, 24 hours compound treatment, read-out: HTT CJ (IC50, decrease in canonical junction mRNA)
[10] = Homo sapiens, A673 or K562 cells, 24 hours compound treatment, read-out: HTT AJ (AC50, increase in alternative junction mRNA)

Compound	IC50 [1] [nM]	IC50 [2] [nM]	AC50 [3, 6] [nM]	IC50 [3, 7] [nM]	IC50 [3, 8] [nM]	IC50 [4, 9] [nM]	AC50 [4, 10] [nM]	IC50 [5] [nM]	IC50 ([3]; Homo sapiens, Table 3B, canonical junction mRNA, RT-qPCR, read-out: MYB CJ (IC50, decrease in CJ mRNA)) [nM]	AC50 ([3]; Homo sapiens, Table 3B, alternative junction mRNA, RT-qPCR, read-out: MYB AJ (AC50, increase in AJ mRNA)) [nM]	AC50 ([4]; Homo sapiens, Table 3B, alternative junction mRNA, read-out: HTT AJ (AC50, increase in AJ mRNA)) [nM]	IC50 ([4]; Homo sapiens, Table 3B, canonical junction mRNA, read-out: HTT CJ (IC50, decrease in CJ mRNA)) [nM]	AC50 ([3]; A673 or K562 cells, 24 hours compound treatment, RT-qPCR, read-out: MYB AJ (AC50, increase in alternative junction mRNA)) [nM]	IC50 ([3]; A673 or K562 cells, 24 hours compound treatment, RT-qPCR, read-out: MYB CJ (IC50, decrease in canonical junction mRNA)) [nM]	AC50 ([4]; A673 or K562 cells, 24 hours compound treatment, read-out: HTT AJ (AC50, increase in alternative junction mRNA)) [nM]	IC50 ([4]; A673 or K562 cells, 24 hours compound treatment, read-out: HTT CJ (IC50, decrease in canonical junction mRNA)) [nM]
Cc1cn2cc(NC(=O)c3ccc(N4CCNCC4)c4cn(CCF)nc34)cc(F)c2n1 [Compound 305, N-{8-fluoro-2-methylimidazo[1,2-a]pyridin-6-yl}-2-(2-fluoroethyl)-4-(piperazin-1-yl)indazole-7-carboxamide]	> 10000	1000 to 10000	100 to 1000	100 to 1000	100 to 1000	1000 to 10000	1000 to 10000	< 100								
CN[C@@H]1CCN(c2ccc(C(=O)Nc3cn4cc(C)nc4c(OC)n3)c3nn(C)cc23)C1 [Compound 441]	> 10000	1000 to 10000	< 100	< 100	< 100	1000 to 10000	1000 to 10000	< 100								
COc1c(NC(=O)c2ccc(N3CCNCC3)c3cn(C)nc23)cc2cn(C)nc2c1F [Compound 315, N-(7-fluoro-6-methoxy-2-methylindazol-5-yl)-2-methyl-4-(piperazin-1-yl) indazole-7-carboxamide hydrochloride]	100 to 1000	100 to 1000	< 100	< 100	< 100	100 to 1000	100 to 1000	< 100								
Cc1cn2cc(NC(=O)c3ccc(N4CCC(NC5(CF)CC5)C4)c4cn(C)nc34)cc(F)c2n1 (stereo not drawn) [Compound 373, N-{8-fluoro-2-methylimidazo[1,2-a]pyridin-6-yl}-4-(3-{[1-(fluoromethyl)cyclopropyl]amino}pyrrolidin-1-yl)-2-methylindazole-7-carboxamide]	> 10000	1000 to 10000	< 100	< 100	< 100	1000 to 10000	1000 to 10000	< 100								
CCNC1CCN(c2ccc(C(=O)Nc3cc(F)c4nc(C)cn4c3)c3nc(CC)cn23)C1 (stereo not drawn) [Compound 942]	1000 to 10000	100 to 1000			100 to 1000			< 100	100 to 1000	100 to 1000	1000 to 10000	100 to 1000				
CCn1cc2c(N3CC[C@@H](NC)C3)ccc(C(=O)Nc3cc(F)c4nc(C)cn4c3)c2n1 [Compound 469, (R)-2-ethyl-N-(8-fluoro-2-methylimidazo[1,2-a]pyridin-6-yl)-4-(3-(methylamino)pyrrolidin-1-yl)-2H-indazole-7-carboxamide]	> 10000	> 10000			> 10000			> 10000					> 10000	> 10000	> 10000	> 10000
Cc1nc2c(F)cc(NC(=O)c3ccc(N4CCNCC4)c4cn(C)nc34)cn2c1C [Compound 458, N-{8-fluoro-2,3-dimethylimidazo[1,2-a]pyridin-6-yl}-2-methyl-4-(piperazin-1-yl) indazole-7-carboxamide]	> 10000	> 10000	< 100	< 100	> 10000	< 100	100 to 1000	> 10000								
Cc1cn2cc(NC(=O)c3ccc(N4CCNCC4)c4cn(C)nc34)ncc2n1 [Compound 246]	> 10000	1000 to 10000	< 100	< 100	< 100	1000 to 10000	1000 to 10000	< 100								
CCn1cc2c(N3CCN[C@@H](CO)C3)ccc(C(=O)Nc3cc(F)c4nc(C)cn4c3)c2n1 [Compound 429, (R)-2-ethyl-N-(8-fluoro-2-methylimidazo[1,2-a]pyridin-6-yl)-4-(3-(hydroxymethyl)piperazin-1-yl)-2H-indazole-7-carboxamide]	> 10000	1000 to 10000	100 to 1000	100 to 1000	100 to 1000	1000 to 10000	1000 to 10000	< 100								
Cc1cn2cc(NC(=O)c3ccc(N4CCNCC4)c4cn(C)nc34)c(=O)n(C)c2n1 [Compound 451, N-{2,8-dimethyl-7-oxoimidazo[1,2-a]pyrimidin-6-yl}-2-methyl-4-(piperazin-1-yl) indazole-7-carboxamide]	> 10000	> 10000	1000 to 10000	1000 to 10000	> 10000	> 10000	> 10000	> 10000								
Cc1cc(NC(=O)c2ccc(N3CCNCC3)c3cn(C)nc23)cc2cn(C)nc12 [Compound 320, N-(2,7-dimethylindazol-5-yl)-2-methyl-4-(piperazin-1-yl) indazole-7-carboxamide; trifluoroacetic acid]	> 10000	1000 to 10000	100 to 1000	100 to 1000	100 to 1000	1000 to 10000	1000 to 10000	< 100								
CCOc1nc(NC(=O)c2ccc(N3CCC(NC)C3)c3cn(C)nc23)cn2cc(C)nc12 (stereo not drawn) [Compound 420, N-{8-ethoxy-2-methylimidazo[1,2-a]pyrazin-6-yl}-2-methyl-4-[3-(methylamino)pyrrolidin-1-yl]indazole-7-carboxamide]	> 10000	> 10000	100 to 1000	100 to 1000	100 to 1000	> 10000	> 10000	< 100								
Cc1cn2cc(NC(=O)c3ccc(N4CCNC[C@@H]4C)c4cn(C)nc34)cc(F)c2n1 [Compound 446, N-{8-fluoro-2-methylimidazo[1,2-a]pyridin-6-yl}-2-methyl-4-[(2S)-2-methylpiperazin-1-yl]indazole-7-carboxamide]	1000 to 10000	1000 to 10000	100 to 1000	100 to 1000	100 to 1000	1000 to 10000	1000 to 10000	< 100								
CCOc1nc(NC(=O)c2ccc(N3CC[C@H](NC)C3)c3cn(C)nc23)cn2cc(C)nc12 [Compound 434]	> 10000	> 10000	1000 to 10000	100 to 1000	< 100	1000 to 10000	1000 to 10000	< 100								
Cc1cn2cc(NC(=O)c3ccc(N4CCC(N(C)C)C4)c4cc(C)oc34)cc(F)c2n1 (stereo not drawn) [Compound 202]	> 10000	> 10000	< 100	100 to 1000	100 to 1000	> 10000	1000 to 10000	< 100								
Cc1cn2cc(NC(=O)c3c(F)cc(N4CCC(N(C)C)C4)c4cn(C)nc34)cc(F)c2n1 (stereo in doubt) [Compound 464, 4-[(3S)-3-(dimethylamino)pyrrolidin-1-yl]-6-fluoro-N-{8-fluoro-2-methylimidazo[1,2-a]pyridin-6-yl}-2-methylindazole-7-carboxamide]	1000 to 10000	100 to 1000	< 100	< 100	< 100	100 to 1000	100 to 1000	< 100								
Cc1cn2cc(NC(=O)c3ccc(N4CCC(NCc5ccccn5)CC4)c4cn(C)nc34)cc(F)c2n1 [Compound 347, N-{8-fluoro-2-methylimidazo[1,2-a]pyridin-6-yl}-2-methyl-4-{4-[(pyridin-2-ylmethyl)amino]piperidin-1-yl}indazole-7-carboxamide]	1000 to 10000	1000 to 10000	< 100	< 100	< 100	1000 to 10000	1000 to 10000	< 100								
CCn1cc2c(N3CCNC(CF)C3)ccc(C(=O)Nc3cc(F)c4nc(C)cn4c3)c2n1 (stereo not drawn) [Compound 453, 2-ethyl-N-{8-fluoro-2-methylimidazo[1,2-a]pyridin-6-yl}-4-[3-(fluoromethyl)piperazin-1-yl]indazole-7-carboxamide]	> 10000	> 10000	1000 to 10000	1000 to 10000	1000 to 10000	> 10000	> 10000	100 to 1000								
